# Results from patent publication US11820792B2, “Cancer treatment” (Imperial College Innovations Limited, priority 2017, dated 2023).
# Key:
# UW228 cells = assay: TNFα and cisplatin combination, sulphorodamine B viability; assay type: cell-based, human; conditions: stably transduced UW228, 1 μM and 5 μM cisplatin
# Description: Cell viability was measured at different time points using sulphorodamine B assay. Stably transduced UW228 were treated with 1 μM and 5 μM cisplatin chemotherapy 48 hrs after seeding the cells. Data are represented as mean±SEM.***P≤0.001.
# DIPG = conditions: 2 children, both died after treatment; cited from earlier work
# [1] = system: recurrent human malignant glioma; conditions: cited from earlier work
# [2] = systemic administration, clinical trials; cited from earlier work
molecule,measurement,setting,value
N.N.[Cl][Pt][Cl] [cisplatin],effect of combination on tmTNFα cytokine gene therapy (cell viability),UW228 cells,increases
CC[C@@]1(O)C(=O)OCc2c1cc1n(c2=O)Cc2cc3c(CN(C)C)c(O)ccc3nc2-1 [topotecan],tumour response,DIPG,reduction in tumour size
IL-4: Interleukin-4 protein injected intratumorally by convection enhanced delivery,neurotoxicity to normal brain,"[1]; histology, any patient",No histological evidence of neurotoxicity
same,patients showing glioma necrosis,"[1]; intratumoral, CED",Six of nine
same,disease free time after the procedure,[1]; one patient,> 18 months
same,systemic toxicity,[1]; treated patients,no drug-related systemic toxicity
rhIL-15: Recombinant human IL-15 cytokine given systemically in clinical trials,plasma half-life,[2],< 1 h
